This note sets out measurements from patent US10010581B2, “Syndecan peptides and polypeptides and uses thereof” (Wisconsin Alumni Research Foundation, priority 2012, dated 2018).

Where no end group is shown, it is not given here.

Holding throughout (type): cell-based, human
For assay [1], the system named is HaCat keratinocytes or MCF10A mammary epithelial cells. Put plainly: competition of LPA-induced haptotactic migration by GST fusion proteins or synthetic peptides (FIG. 10 summary). The settings on record: 0.1 to 30 μM, 3 μM LPA. As for the experimental part:
FIGS. 10A-C. Schematic summary of experiments using either recombinant GST fusion proteins or synthetic peptides to disrupt Sdc1-dependent coupling of HER2 to α6β4 integrin necessary for LPA-induced haptotactic migration. GST-fusion proteins or synthetic peptides were added at concentrations ranging from 0.1 to 30 μM to the culture medium of human HaCat keratinocytes or MCF10A mammary epithelial cells in the presence or absence of 3 μM LPA. The ability of the constructs to inhibit the migration of the cells to close a scratch wound in confluent monolayers was determined and expressed as the concentration of inhibitor necessary to cause 50% inhibition of cell migration. (FIG. 10A) Competition using recombinant GST-fusion proteins. GST-Sdc1 fusion proteins bearing truncations or mutations were assessed for their competitive activity. […] (FIG. 10B) Competition with synthetic peptides. Peptides were purchased from commercial sources for testing as a putative synstatin inhibitory peptide (SSTNHER2). […] (FIG. 10C) Schematic representation of the active site in Sdc1. The active site is shown as a juxtamembrane site in the ectodomain of Sdc1. TM is the transmembrane domain and CYTO is the cytoplasmic domain. The sequence of a peptide derived from this site (SSTNHER2) is shown along with its homology across other mammalian Sdc1 species. The human STTNHER2 sequence is SEQ ID NO:23; the homology for STTNHER2 across mammals is SEQ ID NO:24.
(§1) HaCat or MCF10A cells were grown to confluence on 48 well-plates were starved for 6 hr by serum deprivation followed by introduction of a scratch wound in the monolayer using 200 μl pipette tip. Cells were cultured an additional 18 hr in DMEM containing mAb 3E1 (10 μg/ml) and goat anti-mouse IgG (50 μg/ml), EGF (10 ng/ml) or HGF (20 ng/ml) to cause cell migration in the presence or absence of inhibitors. Images were acquired using a PlanApo 20 (0.75 numerical aperture) objective and a Photometrics CoolSnap ES camera on a Nikon Eclipse TE2000U microscopy system and wound closure quantified.

Assay [2] relates to HaCat keratinocytes. Put plainly: scratch wound haptotaxis induced by LPA and clustering of α6β4 integrin. The settings on record: LPA + α6β4 clustered with mAb 3E1 and secondary antibody, AG825 10 μM, Iressa 1 μM. The source says:
FIG. 6A-D. Sdc1 is required for HER2/α6β4-dependent HaCat keratinocyte migration. (FIG. 6A) HaCat keratinocytes deposit laminin 332 (LN332) and migrate upon this using α3β1 and α6β4 integrins to close a scratch wound in the monolayer when stimulated to undergo chemotaxis in response to EGF. Alternatively, migration is induced by clustering the integrin (using mAb 3E1 against the integrin+a secondary antibody to cluster the first antibody and thus the entire complex) in the presence of LPA. This mimics the clustering that occurs when the cells engage LN332 and is referred to as haptotaxis. […] (FIG. 6B) Haptotaxis, stimulated by LPA and clustering of α6β4 integrin as described in FIG. 6A, is blocked by antibody directed against the α3β1 integrin or by BM165 which targets the binding site for α3β1 in LN332. […] (FIG. 6C) The potential roles of Sdc1 or Sdc4 in haptotaxis is tested by silencing their expression, together with attempting to rescue with either wild-type mouse Sdc1 or Sdc4, or mouse mutants unable to engage the β4 cytoplasmic domain (mSdc1ΔC2 or mSdc4ΔC2). Haptotaxis is blocked by silencing endogenous Sdc1, and this cannot be rescued by Sdc1ΔC2 that fails to engage the α6β4 integrin. Silencing Sdc4 also disrupts migration, but this traces to its role in activity of the α3β1 integrin and not a role in engaging the α6β4 integrin, as it can be rescued by mSdc4ΔC2 that fails to associate with the α6β4 integrin. (FIG. 6D) Immunoprecipitation of either native mSdc4 or mSdc4[…]C2 confirms that the mSdc4ΔC2 mutant no longer associates with the α6β4 integrin, but does with the α3β1 integrin. […]
HaCat or MCF10A cells were grown to confluence on 48 well-plates were starved for 6 hr by serum deprivation followed by introduction of a scratch wound in the monolayer using 200 μl pipette tip. […] Images were acquired using a PlanApo 20 (0.75 numerical aperture) objective and a Photometrics CoolSnap ES camera on a Nikon Eclipse TE2000U microscopy system and wound closure quantified. […]

Assay [3] has as its system MCF10A mammary epithelial cells. Nature of the assay: scratch wound haptotaxis induced by clustering the α6β4 integrin. The settings on record: α6β4 integrin clustered. As for the experimental part:
FIG. 9. Sdc1 ectodomain fragments and β4 dominant-negative mutant specific for Sdc1/α6β4/HER2 block MCF10A mammary epithelial cell migration. Haptotaxis of MCF10A human mammary epithelial cells induced by clustering the α6β4 integrin in a scratch wound assay is used to test the efficacy of inhibitors that target the Sdc1 mechanism. Cells are incubated either with entire recombinant syndecan ectodomains (Sdc1 ectodomain (S1ED) or Sdc4 ectodomain (S4ED) as a control), or an active fragment of mouse S1ED (S1ED^200-252) containing the inhibitory site.
as §1
The inventor used this assay to further truncate the S1ED recombinant proteins in order to find the smallest peptide that retains full inhibitory activity (e.g., SSTNHER2). The inventor tested mouse and human S1ED and find that they compete equally. […]

For assay [4], the system named is A431 cells. Put plainly: A431 cell attachment and spreading on LN332. The note with it: 2 hr, mAb13 30 μg/ml, heparinase III 0.4 CU/ml, Sdc1 siRNA 100 nM. As to the method: FIGS. 2A-E. Requirement of syndecan-1 for A431 cell spreading on LN332. A431 […] cells plated on slides coated with 10 μg/ml LN332 (FIG. 2A) without treatment; (FIG. 2B) with blocking antibody 3E1 to α6β4; (FIG. 2C) prior treatment with heparinase III; or (FIG. 2D) prior treatment with siRNA specific for human Sdc1. (FIG. 2E) Quantification of spread cells plated on LN332 and treated with blocking antibody to β1 integrin (mAb13 30 μg/ml) or control IgG (20 μg/ml), 3E1 blocking antibody (20 ug/ml) to β4 integrin, heparinase III (0.4 CU/ml) or human Sdc1 siRNA (100 nM). Data represent triplicate experiments +/−S.D. (Wang et al., 2010).
Nitrocellulose-coated 10-well glass slides (Erie Scientific, Portsmouth, N.H.) were prepared as described by Beauvais and. Rapraeger (2010). Wells of slide were coated at 37° C. for 2 h with mAb 3E1 (3 μg/ml), diluted in phosphate-buffered saline (CMF-PBS: 135 mM NaCl, 2.7 mM KCl, 10.2 mM Na2HPO47H2O, and 1.75 mM KH2PO4, pH 7.4), and blocked with serum-free Hepes-buffered DMEM (pH 7.4) containing 0.1% heat-denatured bovine serum albumin (plating medium). Cells were lifted with trypsin (0.25% w/v), washed with DMEM, and regenerated in suspension for 1 h at 37° C. in DMEM containing 10% fetal bovine serum. Cells were then plated in wells (50 μl/well) in plating medium at 10^5 cells/ml. […]

Take “210-236: truncated synthetic peptide, amino acids 210-236 of human Sdc1 (DFTFETSGENTAVVAVEPDRRNQSPVD; UniProt P18827 210-236, looked up, fragment)”: the “competitive (inhibitory) activity on haptotactic migration” value in assay [1] was “loss of activity”.
As to “214-240: truncated synthetic peptide, amino acids 214-240 of human Sdc1 (ETSGENTAVVAVEPDRRNQSPVDQGAT; UniProt P18827 214-240, looked up, fragment)”, the “competitive (inhibitory) activity on haptotactic migration” value in assay [1] is “loss of activity”.
With `COc1cc(/C=C(\C#N)C(N)=O)cc(CSc2nc3ccccc3s2)c1O` [AG825], the “haptotaxis (migration to close a scratch wound)” value in assay [2] was “blocks migration”.
The same measure, in the same setting: under `COc1cc2ncnc(Nc3ccc(F)c(Cl)c3)c2cc1OCCCN1CCOCC1` [Iressa] stands “without effect”.
As for “S1ED^200-252: active fragment of mouse S1ED containing the inhibitory site, recombinant fusion protein (QLPAGEGSGEQDFTFETSGENTAVAAVEPGLRNQPPVDEGATGASQSLLDRKE; also: recombinant fusion protein, partner not given here; UniProt P18828 200-252, looked up, fragment)”, in assay [3], the “haptotaxis (migration to close a scratch wound)” value was “competes for haptotaxis”.

B1: heparinase: enzyme treatment that blocks the ability of Sdc1 to bind LN332 (protein, UniProt Q59289 25-659, looked up)
Heparin-sulfate lyase: QSSSITRKDFDHINLEYSGLEKVNKAVAAGNYDDAAKALLAYYREKSKAREPDFSNAEKPADIRQPIDKVTREMADKALVHQFQPHKGYGYFDYGKDINWQMWPVKDNEVRWQLHRVKWWQAMALVYHATGDEKYAREWVYQYSDWARKNPLGLSQDNDKFVWRPLEVSDRVQSLPPTFSLFVNSPAFTPAFLMEFLNSYHQQADYLSTHYAEQGNHRLFEAQRNLFAGVSFPEFKDSPRWRQTGISVLNTEIKKQVYADGMQFELSPIYHVAAIDIFLKAYGSAKRVNLEKEFPQSYVQTVENMIMALISISLPDYNTPMFGDSWITDKNFRMAQFASWARVFPANQAIKYFATDGKQGKAPNFLSKALSNAGFYTFRSGWDKNATVMVLKASPPGEFHAQPDNGTFELFIKGRNFTPDAGVFVYSGDEAIMKLRNWYRQTRIHSTLTLDNQNMVITKARQNKWETGNNLDVLTYTNPSYPNLDHQRSVLFINKKYFLVIDRAIGEATGNLGVHWQLKEDSNPVFDKTKNRVYTTYRDGNNLMIQSLNADRTSLNEEEGKVSYVYNKELKRPAFVFEKPKKNAGTQNFVSIVYPYDGQKAPEISIRENKGNDFEKGKLNLTLTINGKQQLVLVP
Consider B1, for which the “cell spreading on LN332” value in assay [4] was “disrupted”.
